Here are results for one compound from US8658668B2, “PI3 kinase/mTOR dual inhibitor” (Eli Lilly and Company, priority 2011, dated 2014).

Assay [1] relates to P70S6(pT389). The assay is described as follows: AlphaScreen SureFire p-p70S6 kinase (Thr389) in U87MG cells. Type of assay: cell-based. Conditions: Homo sapiens, U-87 MG, 1 h, n = 4, read-out: P70S6(pT389) Absolute IC50. On the procedure: This homogeneous assay format uses immuno-sandwich capture of the phosphorylated analyte and then detection with antibody-coated Alphascreen beads to generate an amplified signal.
Maintain U87MG cells in U87MG growth medium consisting of DMEM (GIBCO 11965-092) supplemented with 10% fetal bovine serum (FBS, GIBCO, 10091-141), 1% nonessential amino acids (GIBCO, 11140-050) and 1% sodium pyruvate (GIBCO, 11360-070). Harvest cells using standard cell culture procedures and then count using Vi-Cell. Plate 100 μL of U87MG cells in growth medium (50,000 cells/well) into Costar #3596 96 well plates and incubate overnight at 37° C., 5% CO2.
Incubate for one h at 37° C., then remove the medium and add 50 μL of 1× SureFire Lysis Buffer (TGR Biosciences SureFire® Kit component) to each well and incubate at room temperature for 10 min with gentle shaking Transfer 6 μL lysate and 10 μL reaction mixture (60 parts reaction buffer/10 parts activation buffer/1 part each of donor and acceptor beads, Perkin Elmer, 6760617R) to a 384 well proxiplate (Perkin Elmer, 6006280) for the p-p70S6 kinase (Thr389) and p-AKT(Ser473) assays. Seal the plate and incubate at RT for 4 h. […] Read the plates on a Perkin Elmer EnVision equipped with a TurboModule using standard AlphaScreen® settings (Ex680 nm and Em520-620 nm). […]

Assay [2] concerns H1975. As to the kind of experiment: Cell proliferation assay (CellTiter-Glo), H1975. Type of assay: cell-based. Conditions: Homo sapiens, NCI-H1975, 72 h. On the procedure: (§1) Plate cells in a 96-well plate at 2000 cells/well in 100 μL of cell specific medium (for U87MG use DMEM, 10% FBS, 25 mM 4-(2-hydroxyethyl)-1-piperazineethanesulfonic acid (HEPES), 1.0 mM sodium pyruvate, and 0.1 mM Non Essential Amino Acids (ATCC Cat.#30-2002); for HT1080 use Eagle's MEM, 10% FBS (ATCC Cat.#30-2003); for H1975, A2780, SJSA-1 and 786-O use RPMI 1640, 10% FBS (ATCC Cat.#30-2001); for A204 use McCoy's 5A, 10% FBS (ATCC Cat.#30-2007) except in column 1 use medium only as the blank control. Incubate the plates overnight at 37° C. and 5% CO2. On the next day, prepare compound stocks at 1 mM in DMSO and serially dilute in DMSO in a 96-well round bottom polypropylene plate. Assay compounds at 10 concentrations in duplicate, 4 compounds per plate.
(§2) Transfer 4 μL of the DMSO serial dilutions to a 96 well plate and add 196 μL of culture medium to create a 10× stock for dosing. Gently transfer 11 μL of each dosing stock to the corresponding well of the cell plate resulting in a 0.2% DMSO concentration and a 111 μL final volume. […]
(§3) Prepared the CellTiter-Glo reagent (Promega, Cat: G7571) and add 100 µL to each well after the incubation is complete, homogenize the cells by mixing on an orbital shaker for 2 min and then incubate at RT for 10 min to allow the luminescent signal to stabilize. Record the luminescent raw data with a Wallac Victor V plate reader. […]

In assay [3] the test system is 786-O. As to the kind of experiment: Cell proliferation assay (CellTiter-Glo), 786-O. It is filed as cell-based. To be noted: Homo sapiens, 786-0, 72 h. On the procedure: as §1, §2, §3
The test system of assay [4] is SJSA-1. The assay is described as follows: Cell proliferation assay (CellTiter-Glo), SJSA-1. To be noted: Homo sapiens, SJSA-1, 72 h. It is filed as cell-based. On the procedure: as §1, §2, §3
The test system of assay [5] is CXF 975 human tumor xenograft cells. As to the kind of experiment: Oncotest tumor clonogenic assay, CXF 975. Type of assay: cell-based. Conditions: colony formation, Colon CXF 975, adeno carcinoma, md, read-out: Absolute IC50.
Assay [6] deals with RXF 486 human tumor xenograft cells. The assay is described as follows: Oncotest tumor clonogenic assay, RXF 486. Conditions: colony formation, Renal RXF 486, hypernephroid adeno carcinoma, clear cell, read-out: Absolute IC50. It is filed as cell-based.
Assay [7] deals with human glioblastoma cells U87MG. As to the kind of experiment: Xenograft tumor model, U87MG. Conditions: oral gavage. It is filed as in vivo, mouse. On the procedure:
Expand human glioblastoma cells U87MG and human renal carcinoma cells 786-O, in culture, harvest and inject subcutaneously onto the rear flank of athymic nude mice. Expand human non-small cell lung cancer cells NCI-H1975 in culture, harvest and inject subcutaneously onto the rear flank of CD-1 nu/nu mice. Prepare test compound in an appropriate vehicle and administer by oral gavage when tumors are established (7-21 days after implant). Tumor response is determined by tumor volume measurement performed twice a week during the course of treatment. Body weight is taken as a general measurement of toxicity.

The structures appear in SMILES notation.

With `CO[C@@H](C)Cn1c(=O)n(C)c2cnc3ccc(-c4cncc(C(C)(C)O)c4)cc3c21` [Example 1, 8-[5-(1-Hydroxy-1-methylethyl)pyridin-3-yl]-1-[(2S)-2-methoxypropyl]-3-methyl-1,3-dihydro-2H-imidazo[4,5-c]quinolin-2-one], the IC50 in assay [1] was 10.6 nM; in assay [2], 102 nM; in assay [3] it was 126 nM; in assay [4], 96 nM; in assay [5], 142 nM; in assay [6] it was 112 nM. For the same compound, the “% TGI” value in assay [7] (3 mg/kg BID) came out at 38.6%; in assay [7] (6 mg/kg BID) it was 57.7%; in assay [7] (10 mg/kg BID), 86.1%; in assay [7] (12 mg/kg QD), 53.4%.
